Literature values in patent publication US12208399B2, “Electrochemical separation and recovery of metals” (YALE UNIVERSITY, priority 2017, dated 2025).
Values after ≈ are worked out from the molar mass of the structure shown.

| Compound | Solubility in water [mg/mL] |
| --- | --- |
| O=C1C(Cl)=CC(=Nc2ccc(O)cc2)C=C1Cl [DCIP, 2,6-dichloroindophenol] | 10 (≈ 37.3 mM) |
| Cc1cc2nc3c(=O)[nH]c(=O)nc-3n(C[C@@H](O)[C@@H](O)[C@@H](O)COP(=O)(O)O)c2cc1C [RMP, riboflavin 5′-monophosphate] | 100 (≈ 219 mM) |
